Results as given in publication PMC8979220 (RSC Advances, 2022).
In brackets after ≈: the same amount, converted by molar mass.

What follows are compounds tested against acetylcholinesterase (acetyl cholinesterase) (assay: in vitro AChE inhibition assay).
Assay type: biochemical, Electrophorus electricus
`O=C1C(=O)N(CCOc2ccccc2)c2ccccc21` [PI1, 1-(2-Phenoxyethyl)indoline-2,3-dione] was tested, and the “IC50 (μg ml^-1) ± SEM” value was 0.52 ± 0.073 µg/mL (≈ 1.95 µM).
With `O=C1C(=O)N(CCOc2ccc(Cl)cc2)c2ccccc21` [PI2, 1-(2-(4-Chlorophenoxy)ethyl)indoline-2,3-dione] the “IC50 (μg ml^-1) ± SEM” value was 0.72 ± 0.012 µg/mL (≈ 2.39 µM).
`O=C1C(=O)N(CCOc2ccc(F)cc2)c2ccccc21` [PI4, 1-(2-(4-Fluorophenoxy)ethyl)indoline-2,3-dione] was tested, and the “IC50 (μg ml^-1) ± SEM” value was 0.68 ± 0.011 µg/mL (≈ 2.38 µM).
In the case of `O=C1C(=O)N(CCOc2ccc(Cl)cc2)c2ccc(Cl)cc21` [PI6, 5-Chloro-1-(2-(4-chlorophenoxy)ethyl)indoline-2,3-dione], the “IC50 (μg ml^-1) ± SEM” value is reported as 0.91 ± 0.015 µg/mL (≈ 2.71 µM).
`O=C1C(=O)N(CCOc2ccccc2)c2ccc(Br)cc21` [PI9, 5-Bromo-1-(2-phenoxyethyl)indoline-2,3-dione] was tested, and the “IC50 (μg ml^-1) ± SEM” value was 0.91 ± 0.083 µg/mL (≈ 2.63 µM).
In the case of `O=C1C(=O)N(CCOc2ccc(Cl)cc2)c2ccc(Br)cc21` [PI10, 5-Bromo-1-(2-(4-chlorophenoxy)ethyl)indoline-2,3-dione], the “IC50 (μg ml^-1) ± SEM” value is reported as 0.98 ± 0.055 µg/mL (≈ 2.57 µM).
For `O=C1C(=O)N(CCOc2ccc(Br)cc2)c2ccc(Br)cc21` [PI11, 5-Bromo-1-(2-(4-bromophenoxy)ethyl)indoline-2,3-dione], the “IC50 (μg ml^-1) ± SEM” value was 1.14 ± 0.013 µg/mL (≈ 2.68 µM).
`O=C1C(=O)N(CCOc2ccc(F)cc2)c2ccc(Br)cc21` [PI12, 5-Bromo-1-(2-(4-fluorophenoxy)ethyl)indoline-2,3-dione] was tested, and the “IC50 (μg ml^-1) ± SEM” value was 1.31 ± 0.083 µg/mL (≈ 3.6 µM).
